In ChEMBL document CHEMBL5729666, “Substituted [1,2,4]triazolo[4,3-a]pyrazines as modulators of sodium channel activity” (2023):
pIC50: −log10 of the molar value.

Target: T1, Cytochrome P450 1A2 (Homo sapiens, UniProt P05177)
T1 sequence (P05177 whole entry): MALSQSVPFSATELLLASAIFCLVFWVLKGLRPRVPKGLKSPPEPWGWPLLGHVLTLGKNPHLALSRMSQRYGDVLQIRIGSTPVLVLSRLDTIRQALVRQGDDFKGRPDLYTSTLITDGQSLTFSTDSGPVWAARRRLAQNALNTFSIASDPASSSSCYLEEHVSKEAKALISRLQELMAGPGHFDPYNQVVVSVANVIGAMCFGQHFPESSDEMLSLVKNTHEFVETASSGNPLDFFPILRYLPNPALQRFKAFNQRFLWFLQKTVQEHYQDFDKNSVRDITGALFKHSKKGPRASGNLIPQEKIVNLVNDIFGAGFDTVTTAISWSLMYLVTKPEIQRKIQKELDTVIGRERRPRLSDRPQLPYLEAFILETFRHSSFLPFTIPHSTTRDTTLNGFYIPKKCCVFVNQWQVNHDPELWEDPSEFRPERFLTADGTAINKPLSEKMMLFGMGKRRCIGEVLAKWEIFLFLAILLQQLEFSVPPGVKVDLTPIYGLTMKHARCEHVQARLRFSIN
Experiment: CYP1A2 Inhibition Assay: CYP1A2 Inhibition in Human Liver Microsomes. Pooled human liver microsomes were incubated with individual CYP, CYP1A2, isozyme-specific marker substrate (Phenacetin) in the presence of test compound at various concentrations (0.05, 0.15, 0.5, 1.5, 5, 15, 50 uM). The specific marker metabolites are measured with LC/MS/MS. The remaining enzymatic activities and inhibitory potency IC50 are determined. Procedure: Microsomes are removed out of the −80° C. freezer to thaw on ice and 20 μL of the substrates solution added to the corresponding wells. Then 20 μL PB was added to blank wells and 2 μL of the test compounds and positive control working solution added to the corresponding wells. 2 μL of solvent was added to No Inhibitor wells and Blank wells. Then 158 μL of the HLM working solution was added to all wells of the incubation plate. The plate was pre-warmed for about 10 min using a 37° C. water bath. Then 20 μL of the NADPH cofactor solution was added to all incubation wells, mixed and incubated for 10 minutes at 37° C. water bath. The reaction is terminated by adding 400 μL cold stop solution (200 ng/mL Tolbutamide and 200 ng/mL Labetalol in ACN). The samples were centrifuged at 4000 rpm for 20 minutes to precipitate protein. Finally 200 μL of the supernatant was transferred to 100 μL HPLC water, shaken for 10 min and analyzed by LC/MS/MS.

Row | IC50 | pIC50 | Compound
1 | in the range around 8 µM | – | O=C(NNc1cnc(-c2ccc(OC(F)(F)F)cc2)cn1)C1(F)CC1
2 | – | > 6.00 | FC(F)(F)Oc1ccc(-c2ccc3nnc(C(F)(F)Cl)n3n2)cc1
